Experimental data: PubChem BioAssay AID248 (DTP/NCI, 2004)
Toxic doses and inconclusive results are not listed. Rule as the data show it: active = T/C of 150% or more; inactive = T/C below 125%.

System: L1210 leukemia ip in BDF1 mice, survival T/C
Assay: NCI In Vivo Anticancer Drug Screen. Data for tumor model L1210 Leukemia (intraperitoneal) in B6D2F1 (BDF1) mice
Conditions: endpoint: mean survival time, higher = longer survival
Outline: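 Antitumor effect is assessed in tumor-bearing animals. Survival in the compound arm is compared with a vehicle-dosed control arm and expressed as their quotient.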

[1] = dose: 100.0 mg/kg/injection, schedule: Q04DX003 (ip), vehicle: saline with Tween-80
[2] = dose: 200.0 mg/kg/injection, schedule: Q04DX003 (ip), vehicle: saline with Tween-80
[3] = dose: 400.0 mg/kg/injection, schedule: Q04DX003 (ip), vehicle: saline with Tween-80
[4] = dose: 100.0 mg/kg/injection, schedule: Q01DX009 (ip), vehicle: Klucel (hydroxypropylcellulose) (HPC)
[5] = dose: 200.0 mg/kg/injection, schedule: Q01DX009 (ip), vehicle: Klucel (hydroxypropylcellulose) (HPC)
[6] = dose: 400.0 mg/kg/injection, schedule: Q01DX009 (ip), vehicle: Klucel (hydroxypropylcellulose) (HPC)
[7] = dose: 100.0 mg/kg/injection, schedule: Q01DX009 (ip), vehicle: saline with Tween-80

Measured: T/C

NC(=S)N/N=C1/CCc2ccccc21
inactive: dose: 100.0 mg/kg/injection, schedule: Q01DX001 (ip), vehicle: carboxymethylcellulose (CMC) 113 % of control

O=c1nc2ccc3[nH]c(O)c4ccc1c2c34
inactive: dose: 50.0 mg/kg/injection, schedule: Q01DX001 (ip), vehicle: saline 104 % of control | dose: 100.0 mg/kg/injection, schedule: Q01DX001 (ip), vehicle: saline 104 % of control | dose: 200.0 mg/kg/injection, schedule: Q01DX001 (ip), vehicle: saline 104 % of control | dose: 400.0 mg/kg/injection, schedule: Q01DX001 (ip), vehicle: saline 98 % of control

CCN(CC)CCOC(=O)C(c1ccccc1)C1CCCCC1 (configuration not stated)
inactive: dose: 6.25 mg/kg/injection, schedule: Q01DX009 (ip), vehicle: saline 105 % of control | dose: 12.5 mg/kg/injection, schedule: Q01DX009 (ip), vehicle: saline 95 % of control | dose: 25.0 mg/kg/injection, schedule: Q01DX009 (ip), vehicle: saline 95 % of control | dose: 50.0 mg/kg/injection, schedule: Q01DX009 (ip), vehicle: saline 103 % of control | dose: 100.0 mg/kg/injection, schedule: Q01DX009 (ip), vehicle: saline 103 % of control

OC1CCC2CCC(O)CC2C1 (configuration not stated)
inactive: [1] 105 % of control | [2] 105 % of control | [3] 92 % of control

C[C@]12CCC(=O)C=C1CC[C@@H]1[C@@H]2[C@@H](O)C[C@@]2(C)[C@H]1CC[C@]2(O)C(=O)COC(=O)c1ccc([N+](=O)[O-])cc1Cl
inactive: dose: 100.0 mg/kg/injection, schedule: Q01DX001 (sc), vehicle: steriod suspending solution 101 % of control | dose: 200.0 mg/kg/injection, schedule: Q01DX001 (sc), vehicle: steriod suspending solution 101 % of control | dose: 400.0 mg/kg/injection, schedule: Q01DX001 (sc), vehicle: steriod suspending solution 97 % of control

Cc1ccccc1NC(=O)CS
inactive: [1] 95 % of control | [2] 88 % of control

O=S(=O)(O)CS(=O)(=O)O
inactive: dose: 5.0 mg/kg/injection, schedule: Q01DX001 (ip), vehicle: saline 101 % of control | dose: 10.0 mg/kg/injection, schedule: Q01DX001 (ip), vehicle: saline 100 % of control | dose: 20.0 mg/kg/injection, schedule: Q01DX001 (ip), vehicle: saline 97 % of control | dose: 40.0 mg/kg/injection, schedule: Q01DX001 (ip), vehicle: saline 101 % of control

O=C(N/N=C/c1ccc(Cl)cc1Cl)c1cccc([N+](=O)[O-])c1
inactive: [4] 100 % of control | [5] 100 % of control | [6] 94 % of control

CN1C(=O)CN=C(c2ccccn2)c2cc(Cl)ccc21
inactive: dose: 100.0 mg/kg/injection, schedule: Q01DX001 (ip), vehicle: saline sonified 112 % of control | dose: 200.0 mg/kg/injection, schedule: Q01DX001 (ip), vehicle: saline sonified 96 % of control | dose: 400.0 mg/kg/injection, schedule: Q01DX001 (ip), vehicle: saline sonified 103 % of control

COC1OCC(N=[N+]=[N-])C(OS(C)(=O)=O)C1OS(C)(=O)=O (configuration not stated)
inactive: [1] 94 % of control | [2] 90 % of control | [3] 92 % of control

CN(C)c1ncnc2c1ncn2C1OC(CO)C2NP(=O)(N(CCCl)CCCl)OC21 (configuration not stated)
inactive: dose: 75.0 mg/kg/injection, schedule: Q01DX001 (ip), vehicle: saline 103 % of control | dose: 150.0 mg/kg/injection, schedule: Q01DX001 (ip), vehicle: saline 119 % of control

CCOC(=O)c1ccc(N2C(=O)C=CC2=O)cc1
inactive: [1] 96 % of control | [2] 98 % of control | [3] 89 % of control

CCOCC(=O)c1c(O)cc(O)cc1O
inactive: [4] 97 % of control | [5] 92 % of control | [6] 101 % of control

Clc1ccc(SSC(Cl)(Cl)Cl)cc1
inactive: dose: 25.0 mg/kg/injection, schedule: Q01DX009 (ip), vehicle: Klucel (hydroxypropylcellulose) (HPC) 98 % of control | dose: 50.0 mg/kg/injection, schedule: Q01DX009 (ip), vehicle: Klucel (hydroxypropylcellulose) (HPC) 88 % of control | [4] 93 % of control

Cc1nc(N)c2nonc2n1
inactive: [7] 89 % of control

ClCCN(CCCCCCN(CCCl)Cc1ccccc1)Cc1ccccc1
inactive: dose: 2.5 mg/kg/injection, schedule: Q04DX002 (ip), vehicle: Klucel (hydroxypropylcellulose) (HPC) 104 % of control | dose: 5.0 mg/kg/injection, schedule: Q04DX002 (ip), vehicle: Klucel (hydroxypropylcellulose) (HPC) 100 % of control

O=C(O)c1ccccc1NCc1cc(=O)[nH]c(=O)[nH]1
inactive: [1] 101 % of control | [2] 98 % of control | [3] 95 % of control

CCCC[Si]CCCC
inactive: dose: 25.0 mg/kg/injection, schedule: Q01DX001 (ip), vehicle: saline with Tween-80 103 % of control | dose: 25.0 mg/kg/injection, schedule: Q01DX009 (ip), vehicle: saline with Tween-80 103 % of control | dose: 50.0 mg/kg/injection, schedule: Q01DX001 (ip), vehicle: saline with Tween-80 110 % of control | dose: 50.0 mg/kg/injection, schedule: Q01DX009 (ip), vehicle: saline with Tween-80 101 % of control | dose: 100.0 mg/kg/injection, schedule: Q01DX001 (ip), vehicle: saline with Tween-80 102 % of control | [7] 101 % of control

CC1C2CCC(C2)C1(C)C (configuration not stated)
inactive: dose: 100.0 mg/kg/injection, schedule: Q01DX001 (ip), vehicle: Klucel (hydroxypropylcellulose) (HPC) 93 % of control | dose: 200.0 mg/kg/injection, schedule: Q01DX001 (ip), vehicle: Klucel (hydroxypropylcellulose) (HPC) 100 % of control | dose: 400.0 mg/kg/injection, schedule: Q01DX001 (ip), vehicle: Klucel (hydroxypropylcellulose) (HPC) 102 % of control

O=C(/C=C\c1ccc(C(=O)Nc2ccc(C3=NCCN3)cc2)cc1)Nc1ccc(C2=NCCN2)cc1
inactive: dose: 6.0 mg/kg/injection, schedule: Q01DX Z (ip), vehicle: water 110 % of control | dose: 11.0 mg/kg/injection, schedule: Q01DX Z (ip), vehicle: water 102 % of control | dose: 15.0 mg/kg/injection, schedule: Q01DX Z (ip), vehicle: saline 114 % of control | dose: 22.0 mg/kg/injection, schedule: Q01DX Z (ip), vehicle: water 104 % of control | dose: 30.0 mg/kg/injection, schedule: Q01DX Z (ip), vehicle: saline 120 % of control | dose: 45.0 mg/kg/injection, schedule: Q01DX Z (ip), vehicle: water 107 % of control | dose: 60.0 mg/kg/injection, schedule: Q01DX Z (ip), vehicle: saline 122 % of control | dose: 120.0 mg/kg/injection, schedule: Q01DX Z (ip), vehicle: saline 113 % of control | dose: 240.0 mg/kg/injection, schedule: Q01DX Z (ip), vehicle: saline 117 % of control | dose: 480.0 mg/kg/injection, schedule: Q01DX Z (ip), vehicle: saline 103 % of control

N#Cc1cc(C#N)c(NN)nc1N
inactive: [1] 86 % of control | [2] 94 % of control | [3] 92 % of control

c1ccc2c(c1)C1=NCCN1c1ccccc1-2
inactive: dose: 10.0 mg/kg/injection, schedule: Q01DX009 (ip), vehicle: Klucel (hydroxypropylcellulose) (HPC) 101 % of control | dose: 10.0 mg/kg/injection, schedule: Q04DX003 (ip), vehicle: Klucel (hydroxypropylcellulose) (HPC) 114 % of control | dose: 20.0 mg/kg/injection, schedule: Q01DX009 (ip), vehicle: Klucel (hydroxypropylcellulose) (HPC) 111 % of control | dose: 20.0 mg/kg/injection, schedule: Q04DX003 (ip), vehicle: Klucel (hydroxypropylcellulose) (HPC) 122 % of control | dose: 40.0 mg/kg/injection, schedule: Q01DX009 (ip), vehicle: Klucel (hydroxypropylcellulose) (HPC) 105 % of control | dose: 40.0 mg/kg/injection, schedule: Q04DX003 (ip), vehicle: Klucel (hydroxypropylcellulose) (HPC) 112 % of control

Nc1ncc(Br)cc1Br
inactive: [7] 94 % of control | [1] 101 % of control | dose: 200.0 mg/kg/injection, schedule: Q01DX009 (ip), vehicle: saline with Tween-80 108 % of control | [2] 95 % of control | dose: 400.0 mg/kg/injection, schedule: Q01DX009 (ip), vehicle: saline with Tween-80 116 % of control | [3] 97 % of control
